Results: patent publication US11963996B2, “Method of treating knee pain” (ORTHOTROPHIX, Inc., priority 2018, dated 2024)

Key:
rat long bone fracture = conditions: cited from earlier work
[1] = test system: subjects with bilateral patello-femoral knee osteoarthritis; experiment: Example 2: re-analysis of the study with stricter MRI image qualification (79 subjects); assay type: in vivo, human
Procedure: After the data analyses in EXAMPLE 1, a few more MRI images were questioned with regard to their technical quality to enable assessment of periarticular bone shape change over time. In order to assure the quality of the overall analysis results, a stricter qualification standard was applied to the MRI images used in EXAMPLE 1, and requalification was performed. Seventy-nine (79) subjects were requalified. The MRI knee images of these subjects were re-analyzed for their periarticular bone shape changes, as well as their correlations with the changes of tibiofemoral cartilage thickness and pain, respectively, in the same manner as described in EXAMPLE 1.
The requalified 79 subjects were included in the efficacy analysis per the Statistical Analysis Plan.

rat dental defect = conditions: in vivo; cited from earlier work
[2] = test system: cultured neonatal mouse calvaria; conditions: cited from earlier work
[3] = Example 2, 79 requalified subjects, Index vs Control knees, 6 or 12 month, or both
[4] = Example 2, Index vs Control Knees, 12 months

Substance: TPX-100: synthetic peptide consisting of 23 amino acids, TDLQERGDNDISPFSGDGQPFKD, derived from human Matrix Extracellular Phosphoglycoprotein (MEPE)
- Tolerability in in vivo bone formation and dentin formation studies (rat long bone fracture; rat bone formation and dentin formation studies): well tolerated
- Bone fracture healing (rat long bone fracture; subcutaneous injection): acceleration of bone fracture healing
- KOOS ADL improvement [1, 3]: clinically meaningful and statistically significant (p<0.05) improvements
- KOOS Knee-related QOL improvement [1, 3]: clinically meaningful and statistically significant (p<0.05) improvements
- WOMAC Function improvement [1, 3]: clinically meaningful and statistically significant (p<0.05) improvements
- 3D periarticular femur bone shape change (bone shape score) ([1]; Example 2, Index vs Control Knees, 6 and 12 months): statistically significant (p<0.05) delay of femur bone shape change
- KOOS Pain subscale improvement [1, 4]: clinically meaningful improvement in Index Knees with a trend towards statistical significance (p<0.09)
- Pain bending knee fully (KOOS Pain question) [1, 4]: significantly improved (p<0.05)
- Pain frequency (KOOS Pain question) [1, 4]: significantly improved (p<0.05)
- Pain going up or down stairs (KOOS Pain question) [1, 4]: significantly improved (p<0.05)
- 3D bone shape change in patella in pain frequency responders ([1]; Example 2, responders): eventually no change in the 3D bone shape in patella
- Pain frequency in responders, baseline to 12 months ([1]; Example 2, responders to TPX-100): decreased from daily pain at baseline to semi-monthly pain at 12 months
- Dentin formation (rat dental defect): promote dentin formation
- Bone formation activity in calvaria culture [2]: thickening of cultured neonatal mouse calvaria
